Measured values as given in patent US20230159527A1, “COMPOUNDS AS BCL-2 INHIBITORS” (Fochon Pharmaceuticals, Ltd., priority 2020, published 2023).

Each compound was assayed on Toledo cells (assay: Cell proliferation assay, Toledo cells (MTS, 72 h)). Conditions: Homo sapiens, Toledo cells, MTS, read-out: Toledo IC50.
Assay type: cell-based
Experimental: MTS testing kit was purchased from Promega (Madison, Wis., USA). The RPMI-1640, Fetal bovine serum and Penicillin-Streptomycin were purchased from BI (Biological Industries, Beit Haemek, Israel). Dimethyl sulfoxide (DMSO) was purchased from Sigma (St. Louis, Mo., USA). Toledo (ATCC catalog #: CRL-2631) cells were cultured in RPMI-1640 supplemented with Penicillin-Streptomycin and 10% FBS.
To investigate whether a compound is able to inhibit the activity of BCL-2 in cells, a mechanism-based assay using Toledo lines was developed. In this assay, the inhibition of BCL-2 was reflected by the inhibition of cell proliferation of Toledo cells. Cells were plated into 96-well plates at the optimized cell density of 30000 cells/well. Plates were incubated at 37° C., with 5% CO2 for 4h. Compounds were serially diluted and added to the plates with the final concentrations of 10000, 3333.3, 1111.1, 370.4, 123.5, 41.2, 13.7, 4.6 and 1.5 nM. Plates were incubated at 37° C., with 5% CO2 for 72 h. 20 μl MTS was added into each well and the plates were incubated at 37° C., with 5% CO2 for exactly 2 h. The absorbance was measured by a microplate reader at 490 nm. IC50 was calculated using GraphPad Prism 5.0 software.

Question: With `CC(C)c1ccccc1[C@@H]1CCCN1C1CC2(CCN(c3ccc(C(=O)NS(=O)(=O)c4cc5c(c([N+](=O)[O-])c4)S[C@@H]([C@H]4CC[C@](C)(O)CC4)CO5)c(Oc4cnc5[nH]cc(F)c5c4)c3)CC2)C1` (single isomer, unassigned) [Example E-2, 2-((3-fluoro-1H-pyrrolo[2,3-b]pyridin-5-yl)oxy)-N-(((S)-3-((1r,4S)-4-hydroxy-4-methylcyclohexyl)-5-nitro-2,3-dihydrobenzo[b][1,4]oxathiin-7-yl)sulfonyl)-4-(2-((R or S)-2-(2-isopropylphenyl)pyrrolidin-1-yl)-7-azaspiro[3.5]nonan-7-yl)benzamide] as the compound, how does the IC50 read?
Answer: Its IC50 is 1 nM.

Question: How did the IC50 turn out when `CO[C@H]1CC[C@H]([C@H]2COc3cc(S(=O)(=O)NC(=O)c4ccc(N5CCC6(CC5)CC(N5CCC[C@H]5c5ccccc5C(C)C)C6)cc4Oc4cnc5[nH]cc(F)c5c4)cc([N+](=O)[O-])c3N2)CC1` (single isomer, unassigned) [Example D-44, 2-((3-fluoro-1H-pyrrolo[2,3-b]pyridin-5-yl)oxy)-4-(2-((R or S)-2-(2-isopropylphenyl)pyrrolidin-1-yl)-7-azaspiro[3.5]nonan-7-yl)-N-(((S)-3-((1r,4S)-4-methoxycyclohexyl)-5-nitro-3,4-dihydro-2H-benzo[b][1,4]oxazin-7-yl)sulfonyl)benzamide] was run?
Answer: Its IC50 is 1 nM.

Question: With `CC(C)c1ccccc1C1(O)CCCC1N1CC2(CCN(c3ccc(C(=O)NS(=O)(=O)c4cc5c(c([N+](=O)[O-])c4)N[C@@H]([C@H]4CC[C@](C)(O)CC4)CO5)c(Oc4cnc5[nH]cc(F)c5c4)c3)CC2)C1` (stereo partly drawn) [Example D-247, 2-((3-fluoro-1H-pyrrolo[2,3-b]pyridin-5-yl)oxy)-4-(2-(2-hydroxy-2-(2-isopropylphenyl)cyclopentyl)-2,7-diazaspiro[3.5]nonan-7-yl)-N-(((S)-3-((1r,4S)-4-hydroxy-4-methylcyclohexyl)-5-nitro-3,4-dihydro-2H-benzo[b][1,4]oxazin-7-yl)sulfonyl)benzamide] as the compound, how does the IC50 read?
Answer: Its IC50 is 1 nM.

Question: How did the IC50 turn out when `CSc1nc2[nH]ccc2cc1Oc1cc(N2CCC3(CC2)CC(N2CCC[C@H]2c2ccccc2C(C)C)C3)ccc1C(=O)NS(=O)(=O)c1cc2c(c([N+](=O)[O-])c1)N[C@@H]([C@H]1CC[C@](C)(O)CC1)CO2` (single isomer, unassigned) [Example D-191, N-(((S)-3-((1r,4S)-4-hydroxy-4-methylcyclohexyl)-5-nitro-3,4-dihydro-2H-benzo[b][1,4]oxazin-7-yl)sulfonyl)-4-(2-((R or S)-2-(2-isopropylphenyl)pyrrolidin-1-yl)-7-azaspiro[3.5]nonan-7-yl)-2-((6-(methylthio)-1H-pyrrolo [2,3-b]pyridin-5-yl)oxy)benzamide] was run?
Answer: The IC50 was 1 nM.

Question: For `CC(C)c1ccccc1[C@@H]1CCC[C@@H]1N1CC2(CCN(c3ccc(C(=O)NS(=O)(=O)c4ccc(NC[C@H]5CC[C@](C)(O)CC5)c([N+](=O)[O-])c4)c(Oc4cc5cc[nH]c5nc4OC[C@@H]4COCCO4)c3)CC2)C1` (single isomer, unassigned) [Example D-236, 2-((6-(((S)-1,4-dioxan-2-yl)methoxy)-1H-pyrrolo[2,3-b]pyridin-5-yl)oxy)-N-((4-(((1r,4r)-4-hydroxy-4-methylcyclohexyl)methyl)amino)-3-nitrophenyl)sulfonyl)-4-(2-((1S,2S or 1R,2R)-2-(2-isopropylphenyl)cyclopentyl)-2,7-diazaspiro[3.5]nonan-7-yl)benzamide], which IC50 is on record?
Answer: The IC50 was 1 nM.

Question: With `CC(C)c1ccccc1[C@@H]1CCC[C@@H]1N1CC2(CCN(c3ccc(C(=O)NS(=O)(=O)c4ccc(NC[C@H]5CC[C@](C)(O)CC5)c([N+](=O)[O-])c4)c(Oc4cc5cc[nH]c5nc4Cl)c3)CC2)C1` (single isomer, unassigned) [Example D-232, 2-((6-chloro-1H-pyrrolo[2,3-b]pyridin-5-yl)oxy)-N-((4-((1r,4r)-4-hydroxy-4-methylcyclohexyl)methyl)amino)-3-nitrophenyl) sulfonyl)-4-(2-((1S,2S or 1R,2R)-2-(2-isopropylphenyl) cyclopentyl)-2,7-diazaspiro[3.5] nonan-7-yl)benzamide] as the compound, how does the IC50 read?
Answer: The IC50 was 1 nM.

Question: Which IC50 does the source give for `CC(C)c1ccccc1C1=CCCC1N1CC2(CCN(c3ccc(C(=O)NS(=O)(=O)c4cc5c(c([N+](=O)[O-])c4)N[C@@H]([C@H]4CC[C@](C)(O)CC4)CO5)c(Oc4cnc5[nH]cc(F)c5c4)c3)CC2)C1` (stereo partly drawn) [Example D-77, 2-((3-fluoro-1H-pyrrolo[2,3-b]pyridin-5-yl)oxy)-N-(((S)-3-((1r,4S)-4-hydroxy-4-methylcyclohexyl)-5-nitro-3,4-dihydro-2H-benzo[b] [1,4]oxazin-7-yl)sulfonyl)-4-(2-(2-(2-isopropylphenyl)cyclopent-2-en-1-yl)-2,7-diazaspiro[3.5]nonan-7-yl)benzamide] here?
Answer: Its IC50 is 1 nM.

Question: For `CC(C)c1ccccc1[C@@H]1CCCN1C1CC2(CCN(c3ccc(C(=O)NS(=O)(=O)c4cc5c(c([N+](=O)[O-])c4)N[C@@H]([C@H]4CC[C@](C)(O)CC4)CO5)c(Oc4cc5c(F)c[nH]c5nc4OC[C@H](C)O)c3)CC2)C1` (single isomer, unassigned) [Example D-221, 2-((3-fluoro-6-((S)-2-hydroxypropoxy)-1H-pyrrolo[2,3-b]pyridin-5-yl)oxy)-N-(((S)-3-((1r,4S)-4-hydroxy-4-methylcyclohexyl)-5-nitro-3,4-dihydro-2H-benzo[b][1,4]oxazin-7-yl)sulfonyl)-4-(2-((R or S)-2-(2-isopropylphenyl)pyrrolidin-1-yl)-7-azaspiro[3.5]nonan-7-yl)benzamide], which IC50 is on record?
Answer: The IC50 was 1 nM.

Question: How did the IC50 turn out when `CC(C)c1ccccc1[C@@H]1CCC[C@@H]1N1CC2(CCN(c3ccc(C(=O)NS(=O)(=O)c4cnc(NC[C@H]5CC[C@](C)(O)CC5)c([N+](=O)[O-])c4)c(Oc4cc5cc[nH]c5nc4OC4COC4)c3)CC2)C1` (single isomer, unassigned) [Example A-162, N-((6-((((1r,4r)-4-hydroxy-4-methyl-cyclohexyl)methyl)amino)-5-nitro-pyridin-3-yl)sulfonyl)-4-(2-((1S,2S or 1R,2R)-2-(2-isopropylphenyl)cyclo-pentyl)-2,7-diazaspiro[3.5]nonan-7-yl)-2-((6-(oxetan-3-yloxy)-1H-pyrrolo [2,3-b]pyridin-5-yl)oxy)benzamide] was run?
Answer: The IC50 was 1 nM.

Same assay, conditions: Homo sapiens, Toledo, read-out: Toledo IC50 (nM)

Question: How did the IC50 turn out when `CC(C)c1ccccc1[C@@H]1COCCN1C1CC2(CCN(c3ccc(C(=O)NS(=O)(=O)c4cc5c(c([N+](=O)[O-])c4)N[C@@H]([C@H]4CC[C@](C)(O)CC4)CO5)c(Oc4cnc5[nH]cc(Br)c5c4)c3)CC2)C1` (single isomer, unassigned) [Example D-3, 2-((3-bromo-1H-pyrrolo[2,3-b]pyridin-5-yl)oxy)-N-((S)-3-((1r,4S)-4-hydroxy-4-methylcyclohexyl)-5-nitro-3,4-dihydro-2H-benzo [b][1,4]oxazin-7-yl)sulfonyl)-4-(2-((R or S)-3-(2-isopropylphenyl)morpholino)-7-azaspiro[3.5]nonan-7-yl) benzamide] was run?
Answer: Its IC50 is 1 nM.

Question: Which IC50 does the source give for `CC(C)c1ccccc1[C@@H]1COCCN1C1CC2(CCN(c3ccc(C(=O)NS(=O)(=O)c4cc5c(c([N+](=O)[O-])c4)N[C@@H]([C@H]4CC[C@](C)(O)CC4)CO5)c(Oc4cnc5[nH]cc(Cl)c5c4)c3)CC2)C1` (single isomer, unassigned) [Example D-2, 2-((3-chloro-1H-pyrrolo[2,3-b]pyridin-5-yl)oxy)-N-(((S)-3-((1r,4S)-4-hydroxy-4-methylcyclohexyl)-5-nitro-3,4-dihydro-2H-benzo[b] [1,4]oxazin-7-yl)sulfonyl)-4-(2-((R or S)-3-(2-isopropylphenyl)morpholino)-7-azaspiro[3.5]nonan-7-yl) benzamide] here?
Answer: The IC50 was 1 nM.

Question: For `CC(C)c1ccccc1[C@@H]1CCCN1C1CC2(CCN(c3ccc(C(=O)NS(=O)(=O)c4ccc(NC[C@H]5CC[C@](C)(O)CC5)c([N+](=O)[O-])n4)c(Oc4cnc5[nH]ccc5c4)c3)CC2)C1` (single isomer, unassigned) [Example C-2, 2-((1H-pyrrolo[2,3-b]pyridin-5-yl)oxy)-N-((5-((((1r,4r)-4-hydroxy-4-methylcyclohexyl)methyl)amino)-6-nitropyridin-2-yl)sulfonyl)-4-(2-((R or S)-2-(2-isopropylphenyl)pyrrolidin-1-yl)-7-azaspiro[3.5]nonan-7-yl)benzamide], which IC50 is on record?
Answer: The IC50 was 1 nM.

Same assay, conditions: Toledo cells, MTS, read-out: Toledo IC50

Question: Which IC50 does the source give for `CC(C)c1ccccc1C1COCCN1C1CC2(CCN(c3ccc(C(=O)NS(=O)(=O)c4cc5c(c([N+](=O)[O-])c4)S[C@@H](C4CCC(C)(O)CC4)CO5)c(Oc4cnc5[nH]cc(F)c5c4)c3)CC2)C1` (single isomer, unassigned) [Example E-6, 2-((3-fluoro-1H-pyrrolo[2,3-b]pyridin-5-yl)oxy)-N-(((S)-3-((1r,4S)-4-hydroxy-4-methylcyclohexyl)-5-nitro-2,3-dihydrobenzo [b][1,4]oxathiin-7-yl)sulfonyl)-4-(2-((R or S)-3-(2-isopropylphenyl)morpholino)-7-azaspiro[3.5]nonan-7-yl)benzamide] here?
Answer: The IC50 was 1 nM.

Question: How did the IC50 turn out when “N-(((S)-3-((1r,4S)-4-hydroxy-4- methylcyclohexyl)-5-nitro-3,4- dihydro-2H-benzo[b][1,4]oxazin-7- yl)sulfonyl)-4-(2-((R or S)- 2-(2-isopropylphenyl)pyrrolidin- 1-yl)-7-azaspiro[3.5]nonan-7- yl)-2-((6-(((R)-tetrahydrofuran-3- yl)oxy)-1H-pyrrolo[2,3-b]pyridin- 5-yl)oxy)benzamide [Example D-73]” was run?
Answer: The IC50 was 1 nM.
